pIC50: −log10 of the molar value.

The term pIC50 denotes the IC50 on a negative log10 scale, so that one unit is a factor of ten.

The experiment relates to gamma secretase cleavage of NotchΔE (ZEDN1). As to the kind of experiment: Notch Signaling Assay for Selective Inhibitors of Gamma Secretase (reporter gene based). It is filed as cell-based. The note with it: Rattus norvegicus; assay not given; it follows the Notch signaling (4xwtCBF1 Luciferase reporter) method. The source says:
Notch Signaling Assay for Selective Inhibitors of Gamma Secretase.
Due to the importance of Notch signaling in cell fate determination, and tissue differentiation during both development and in the adult, inhibition of Notch signaling by gamma secretase inhibitors is postulated to be a limiting factor in their therapeutic utility. In order to identify selective gamma secretase inhibitors, we have employed a reporter gene based Notch signaling assay using a constitutively active rat Notch1 construct (ZEDN1) provided by Dr Gerry Weinmaster, who is at the University of California at Los Angeles (UCLA) as described in Shawber, C., D. Nofziger, J. J. Hsieh, C. Lindsell, O. Bogler, D. Hayward and G. Weinmaster (1996). “Notch signaling inhibits muscle cell differentiation through a CBF1-independent pathway.” Development 122(12): 3765-73 in combination with the CBF1 repressible Luciferase reporter gene 4xwtCBF1Luc (Hsieh, J. J., T. Henkel, P. Salmon, E. Robey, M. G. Peterson and S. D. Hayward (1996). “Truncated mammalian Notch1 activates CBF1/RBPJk-repressed genes by a mechanism resembling that of Epstein-Barr virus EBNA2.” Mol Cell Biol 16(3): 952-9).
When 4xwtCBF1 Luciferase is co-transfected with NotchΔE (ZEDN1), γ-secretase cleavage of NotchΔE releases the Notch intracellular domain (NICD), which translocates to the nucleus and de-represses CBF1 mediated transcriptional repression, leading to transcription of the Luciferase reporter gene. Luciferase activity is easily assayed in cell extracts using commercially available kits. The activity of the reporter gene is directly correlated with gamma secretase cleavage of NotchΔE, and as such, a reduction in Luciferase activity provides a convenient measure of inhibition of gamma secretase cleavage of NotchΔE. A comparison of the IC50 values of compounds for inhibition of Notch signaling versus inhibition of β-amyloid production in 293sw cells is employed to guide in the selection of compounds that have the desired property of potent inhibition of β-amyloid synthesis with minimal inhibition of Notch Signaling.
As for `Cn1nnc2cc(CN([C@@H]3CCCCNC3=O)S(=O)(=O)c3ccc(Cl)s3)ccc21` [5-Chloro-thiophene-2-sulfonic acid (1-methyl-1H-benzotriazol-5-ylmethyl)-[(R)-2-oxo-azepan-3-yl]-amide], the pIC50 was 6.00 to 7.00.
Next, `O=C1NCCCC[C@H]1N(Cc1ccc(Br)cc1)S(=O)(=O)c1ccc(Cl)s1` [5-Chloro-thiophene-2-sulfonic acid (4-bromo-benzyl)-[(R)-2-oxo-azepan-3-yl]-amide]: 6.00 to 7.00; `Cc1ccc(S(=O)(=O)N(Cc2ccc(Br)cc2)[C@@H]2CCCCNC2=O)s1` [5-Methyl-thiophene-2-sulfonic acid (4-bromo-benzyl)-[(R)-2-oxo-azepan-3-yl]-amide]: less than 6.00; `Cn1nnc2cc(CN([C@@H]3CCCCNC3=O)S(=O)(=O)c3ccc(Cl)nc3)ccc21` [6-Chloro-pyridine-3-sulfonic acid (1-methyl-1H-benzotriazol-5-ylmethyl)-[(R)-2-oxo-azepan-3-yl]-amide]: 7.00 to 9.00.
Next, `CC(=Cc1ccccc1)CN([C@@H]1CCCCNC1=O)S(=O)(=O)c1ccc(Cl)nc1` [6-Chloro-pyridine-3-sulfonic acid (2-methyl-3-phenyl-allyl)-[(R)-2-oxo-azepan-3-yl]-amide]: 7.00 to 9.00.
The result for `O=C1NCCCC[C@H]1N(CC=Cc1cccnc1)S(=O)(=O)c1ccc(Cl)nc1` [6-Chloro-pyridine-3-sulfonic acid [(R)-2-oxo-azepan-3-yl]-(3-pyridin-3-yl-allyl)-amide] reads 7.00 to 9.00; that for `O=C1NCCCC[C@H]1N(CC1CCCCO1)S(=O)(=O)c1ccc(Cl)nc1` (stereo partly drawn) [6-Chloro-pyridine-3-sulfonic acid [(R)-2-oxo-azepan-3-yl]-(tetrahydro-pyran-2-ylmethyl)-amide], less than 6.00.
For `O=C1NCCCC[C@H]1N(Cc1ccc(Br)cc1)S(=O)(=O)c1cccnc1` [Pyridine-3-sulfonic acid (4-bromo-benzyl)-[(R)-2-oxo-azepan-3-yl]-amide], the negative logarithm of the IC50 (pIC50) was 6.00 to 7.00.
